According to patent US20240240155A1, “Organoid-Derived Monolayers and Uses Thereof” (Hub Organoids IP B.V., priority 2021, published 2024):

Legend:
[1] = tested on: Human gastro-intestinal tract organoid-derived monolayers; test: Polarisation assay: TEER and Lucifer yellow permeability after apical or basolateral treatment; assay type: cell-based; settings: eCDM; apical, basolateral or both compartments; day 3 after seeding
[2] = target: T1, P-gp (Homo sapiens, UniProt P08183); test: Calcein transport assay, pulse-chase format, lung-C monolayers; assay type: cell-based; settings: T=2 hours
T1 construct: endogenous in cells; host or cells: human lung organoid-derived monolayer (donor lung-C)

[3] = target: T1, P-gp; test: Rhodamine transport assay, kidney-C monolayers; assay type: cell-based; settings: 1 μM, 30 mins; day 7
[4] = target: T1, P-gp; test: Calcein transport assay, accumulation format, lung-C monolayers; assay type: cell-based; settings: 1 μM, 30 mins; LuM LLI and LuM ALI
[5] = target: T1, P-gp; test: Calcein transport assay, kidney-C monolayers; assay type: cell-based; settings: 1 μM, 30 mins; KEM or DAC conditions, day 7
[6] = target: T2, ALK5 (TGF-βR1) (Homo sapiens, UniProt P36897); settings: high concentrations; cited from earlier work
T2 sequence (P36897 34-503): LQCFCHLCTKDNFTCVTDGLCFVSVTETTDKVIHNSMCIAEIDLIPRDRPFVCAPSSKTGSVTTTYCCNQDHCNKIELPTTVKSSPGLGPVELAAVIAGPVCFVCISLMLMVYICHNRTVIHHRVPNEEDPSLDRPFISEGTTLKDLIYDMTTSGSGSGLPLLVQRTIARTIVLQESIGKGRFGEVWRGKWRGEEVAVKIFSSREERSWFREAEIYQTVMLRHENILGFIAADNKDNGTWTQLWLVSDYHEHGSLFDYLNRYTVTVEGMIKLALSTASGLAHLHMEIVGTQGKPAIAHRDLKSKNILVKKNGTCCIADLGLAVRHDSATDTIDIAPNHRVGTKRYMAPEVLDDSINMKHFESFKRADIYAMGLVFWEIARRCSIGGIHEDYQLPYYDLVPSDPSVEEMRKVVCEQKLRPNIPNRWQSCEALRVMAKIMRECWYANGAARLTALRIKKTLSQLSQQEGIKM

[7] = tested on: IBD-PDO proximal colon epithelium monolayers; test: Barrier function assay in IBD-PDO monolayers, TEER; assay type: cell-based, human; settings: after 24 hours
Procedure: (§1) IBD patient-derived organoid (IBD-PDO) monolayer cultures from ileum, proximal and distal colon were established following the same protocols used in previous experiments. […] Their barrier integrity was measured at 5 and 24 hours followed by LY permeability and cell viability performed (FIGS. 10, 11).

[8] = tested on: normal colon-derived epithelium monolayers; assay type: cell-based, human; settings: cytokine-treated colon monolayers
[9] = tested on: normal ileum-derived organoid epithelium monolayers; test: Cytokine-induced barrier injury with tofacitinib pre-treatment, TEER; assay type: cell-based, human
Procedure: (§2) (A) Transepithelial electrical resistance (TEER). (B) Relative TEER values from the same Transwell before treatment after 5 and 24 hours. (C) Permeability and (D) Cell viability of the same Transwell after 24 hours in response to treatments. Data are represented as mean±SD for 3 technical replicates. An unpaired t-test was performed on permeability and cell viability data. A one-way ANOVA (Dunett's multiple comparisons test) was done on normalized TEER, permeability and cell viability data. *P<0.05, **P<0.01, ***P<0.001.
The experimental condition above were reproduced by repeating the same experiment with same normal colon-derived epithelium monolayer and extended to normal ileum-derived organoid epithelium monolayers from the same donor, as in the previous experiment.
To address IFN-γ specificity in inducing barrier injury, TNF-α/IL-1α combination (data not shown) was included in addition to IFN-γ/TNF-α/IL-1α and IFN-γ/TNF-α.

[10] = tested on: IBD-PDO ileum epithelium monolayers; test: Barrier function assay in IBD-PDO monolayers, TEER; assay type: cell-based, human; settings: 0.1, 2 and 10 μM pre-treatment
Procedure: (§3) (A) Transepithelial electrical resistance (TEER). (B) relative TEER value from the same transwell before treatment after 5 and 24 hours. (C) Permeability and (D) cell viability of the same Transwell after 24 hours in response to treatments. Data represented as mean±SD for 3 technical replicates. A two-way ANOVA (Dunett's multiple comparisons test) was done on normalized TEER, all conditions were compared to the pre-treatment conditions. For permeability and cell viability data a one-way ANOVA (Dunett's multiple comparisons test) was used. ****P<0.0001; ***P<0.001; **P<0.01; *P<0.1; ns, not significant.
as §1

[11] = tested on: normal ileum-derived organoid epithelium monolayers; test: Cytokine-induced barrier injury with tofacitinib pre-treatment, LY permeability; assay type: cell-based, human; settings: 10 μM tofacitinib, IFN-γ containing cytokine cocktails
[12] = tested on: IBD-PDO ileum epithelium monolayers; test: Barrier function assay in IBD-PDO monolayers, LY permeability; assay type: cell-based, human; settings: 0.1, 2 and 10 μM pre-treatment
[13] = tested on: IBD-PDO derived distal colon epithelium monolayers; test: Barrier function assay in IBD-PDO monolayers, cell viability; assay type: cell-based, human; settings: 0.1, 2 and 10 μM pre-treatment
[14] = tested on: IBD-PDO derived distal colon epithelium monolayers; test: Barrier function assay in IBD-PDO monolayers, TEER; assay type: cell-based, human; settings: highest tofacitinib concentration
Procedure: as §3, with “(A-C)” for “(A)”, “(D-F)” for “(B)”, “Transwell” for “transwell”, “(G-I)” for “(C)”, “(J-L)” for “(D)”
as §1

[15] = tested on: IBD-PDO ileum epithelium monolayers; test: Barrier function assay in IBD-PDO monolayers, cell viability; assay type: cell-based, human; settings: 0.1, 2 and 10 μM pre-treatment
[16] = tested on: normal colon-derived epithelium monolayers; test: Cytokine-induced barrier injury with tofacitinib pre-treatment, TEER; assay type: cell-based, human
Procedure: (A) Transepithelial electrical resistance (TEER). (B) relative TEER value from the same Transwell before treatment after 5 and 24 hours. (C) Permeability and (D) Cell viability of the same Transwell after 24 hours in response to treatments. […] (E) TEER (top), permeability (middle) and cell viability (bottom) dose response curves. EC50 values were calculated by Non-linear regression log(inhibitor) versus response variable slope (four parameters) of three technical replicates.
as §2, with “Data are represented as mean±SD for 3 technical replicates.” left out
At this point, the culture medium was changed to cCDM until epithelium monolayer barrier integrity further increased (TEER >1000 Ω·cm^2). […] These measurements were normalized to the TEER value of the same Transwell before measurement, to correct for well-to-well TEER variability (FIG. 7B). Paracellular permeability was measured by the Lucifer Yellow (LY) permeability assay after 24 hours (FIG. 7C). Subsequently, monolayer cell viability was measured by the ATP Luminescent Assay, CellTiter-Glo 3D, to monitor for loss of barrier function due to cell death, as opposed to increased paracellular permeability. […] (FIG. 7D).

[17] = tested on: IBD-PDO derived distal colon epithelium monolayers; test: Barrier function assay in IBD-PDO monolayers, LY permeability; assay type: cell-based, human; settings: 0.1, 2 and 10 μM pre-treatment
[18] = tested on: normal colon-derived epithelium monolayers; test: Cytokine-induced barrier injury with tofacitinib pre-treatment, Lucifer Yellow permeability assay; assay type: cell-based, human
[19] = tested on: normal colon derived epithelium monolayers; test: Proinflammatory cytokine titration, barrier injury by TEER; assay type: cell-based, human; settings: cCDM culture condition, 24 hours after cytokine addition
Description: FIG. 6 illustrates inducing barrier injury to normal colon derived epithelium monolayers on 96 well transwell plates in expansion (CNM) and combination (cCDM) culture conditions by serial titration of proinflammatory cytokines. All proinflammatory cytokines were used at the final concentrations listed on the graph regardless of combination. (A)-(H) illustrate transepithelial […] (TEER) in CNM and cCDM culture conditions. Data are represented as mean±SD for 3 technical replicates. […] EC50 dose response curves were calculated by Non-linear regression log(inhibitor) versus response variable slope (four parameters).
As IFN-γ has major impact in inducing barrier damage via JAK-STAT signalling pathway, we titrated different combinations of three indicated proinflammatory cytokines to resolve TNF-α and IL-1α synergy in combination with IFN-γ. […] The lower sensitivity of organoid-derived epithelium monolayers cultured in CNM correlated with a lower expression of IFN-γ receptor (IFNGR1) compared to the cCDM culture condition.

T1 sequence (P08183 whole entry): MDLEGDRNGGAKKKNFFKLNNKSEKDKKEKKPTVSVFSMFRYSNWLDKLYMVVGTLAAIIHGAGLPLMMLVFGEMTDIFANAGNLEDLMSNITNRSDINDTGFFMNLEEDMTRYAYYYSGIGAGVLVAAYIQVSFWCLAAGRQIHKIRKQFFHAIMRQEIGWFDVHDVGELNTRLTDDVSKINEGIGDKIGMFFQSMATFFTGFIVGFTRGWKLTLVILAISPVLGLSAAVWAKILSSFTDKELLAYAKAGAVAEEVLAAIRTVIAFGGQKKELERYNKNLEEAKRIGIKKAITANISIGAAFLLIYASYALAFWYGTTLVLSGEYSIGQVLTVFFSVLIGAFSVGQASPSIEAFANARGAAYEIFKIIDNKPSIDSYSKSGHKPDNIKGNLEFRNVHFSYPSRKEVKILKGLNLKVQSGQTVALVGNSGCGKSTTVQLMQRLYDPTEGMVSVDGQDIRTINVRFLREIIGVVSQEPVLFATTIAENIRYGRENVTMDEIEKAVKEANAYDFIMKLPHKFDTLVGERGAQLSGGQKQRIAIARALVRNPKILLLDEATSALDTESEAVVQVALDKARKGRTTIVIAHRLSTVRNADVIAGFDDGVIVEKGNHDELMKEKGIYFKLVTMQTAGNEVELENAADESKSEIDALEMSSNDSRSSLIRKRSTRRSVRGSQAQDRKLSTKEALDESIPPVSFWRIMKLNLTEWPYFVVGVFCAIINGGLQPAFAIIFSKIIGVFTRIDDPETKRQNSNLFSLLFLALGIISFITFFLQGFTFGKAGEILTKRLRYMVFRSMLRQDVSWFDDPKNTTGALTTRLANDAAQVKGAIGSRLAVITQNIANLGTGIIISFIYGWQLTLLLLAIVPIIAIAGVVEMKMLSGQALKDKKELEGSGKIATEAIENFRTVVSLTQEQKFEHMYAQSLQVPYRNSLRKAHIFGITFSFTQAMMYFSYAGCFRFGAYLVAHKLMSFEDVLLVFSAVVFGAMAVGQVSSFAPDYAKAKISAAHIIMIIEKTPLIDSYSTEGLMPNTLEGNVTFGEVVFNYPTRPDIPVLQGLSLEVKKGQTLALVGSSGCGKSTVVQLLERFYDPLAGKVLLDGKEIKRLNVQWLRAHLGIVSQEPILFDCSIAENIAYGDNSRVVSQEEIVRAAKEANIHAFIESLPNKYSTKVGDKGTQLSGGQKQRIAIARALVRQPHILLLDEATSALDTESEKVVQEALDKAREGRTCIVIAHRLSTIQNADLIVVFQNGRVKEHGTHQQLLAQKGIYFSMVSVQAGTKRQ

With `COc1cc2ncnc(Nc3ccc(F)c(Cl)c3)c2cc1OCCCN1CCOCC1` [Gefitinib] the “integrity of organoid-derived epithelial monolayers (TEER, Lucifer yellow permeability)” value [1] was “compromised only when Gefitinib is added to the basolateral compartment”.

With `C/C=C/C[C@@H](C)C(=O)[C@H]1C(=O)N[C@@H](C(C)C)C(=O)N(C)CC(=O)N(C)[C@@H](CC(C)C)C(=O)N[C@@H](C(C)C)C(=O)N(C)[C@@H](CC(C)C)C(=O)N[C@@H](C)C(=O)N[C@H](C)C(=O)N(C)[C@@H](CC(C)C)C(=O)N(C)[C@@H](CC(C)C)C(=O)N(C)[C@@H](C(C)C)C(=O)N1C` [PSC833] the “Calcein AM accumulation or efflux” value [2] was “did not show notable effects on Calcein AM accumulation or efflux”, the “cellular accumulation of Rhodamine” value [3] was “Increased cellular accumulation of Rhodamine” and the “cellular accumulation of Calcein AM” value [4] was “Increased cellular accumulation of Calcein AM”. The “cellular accumulation of Calcein AM” value [5] was “Increased cellular accumulation of Calcein AM”.

In the case of `C[S+]([O-])c1ccc(-c2nc(-c3ccc(F)cc3)c(-c3ccncc3)[nH]2)cc1` (centres unmarked) [SB-203580], the “concentration at which it is thought to inhibit ALK5” value [6] is listed as ≥ 10 µM.

In the case of `C[C@@H]1CCN(C(=O)CC#N)C[C@@H]1N(C)c1ncnc2[nH]ccc12` [tofacitinib], the “pre-treatment concentration with which barrier integrity damage was completely restored” value [7] is reported as “higher than 0.1 μM”, the “pre-treatment concentration that prevented cytokine induced cell death” value [8] is reported as “above 3 μM” and the “tofacitinib pre-treatment concentration that protected monolayers” value [9] is reported as 10 µM. The “inhibition of IFN-γ/TNF-α/IL-1α and IFN-γ/TNF-α barrier injury (TEER)” value [10] was “inhibited by tofacitinib pre-treatment in a dose response manner”, the “LY permeability after pre-treatment” value [11] was “became impermeable again” and the “inhibition of cytokine-compromised LY permeability” value [12] was “inhibited by tofacitinib in a dose responsive manner”. For the same molecule, the “inhibition of cytokine-compromised cell viability” value [13] was “inhibited by tofacitinib in a dose responsive manner”, the “effect on TNF-α/IL-1α reduced barrier function integrity” value [14] was “not inhibited or restored with highest tofacitinib concentration” and the “inhibition of induced damage (TEER)” value ([14]; 5 hours) was “not completely inhibited even with highest tofacitinib concentration”. For the same molecule, the “restoration of induced damage (TEER)” value ([14]; 24 hours) was “restored after 24 hours”, the “inhibition of cytokine-compromised cell viability” value [15] was “inhibited by tofacitinib in a dose responsive manner” and the “pre-treatment concentration that maintained barrier function integrity” value ([16]; both cytokine combinations, TEER) was “above 3 μM”. The “tofacitinib pre-treatment concentration that protected monolayers” value ([16]; colon) was 2 µM, the “inhibition of TNF-α/IL-1α induced barrier function injury” value ([16]; highest tofacitinib concentration used) was “not inhibited by highest tofacitinib concentration used” and the “protection from cytokine induced barrier injury” value ([16]; tofacitinib 0.1 μM pre-treatment) was “partially protected”. The “protection from cytokine induced barrier injury” value ([16]; tofacitinib 2 μM pre-treatment) was “completely”, the “inhibition of cytokine-compromised LY permeability” value [17] was “inhibited by tofacitinib in a dose responsive manner” and the EC50 ([18]; Homo sapiens, read-out: Permeability (EC50 of tofacitinib dose response, FIG. 7E), IFN-γ/TNF-α/IL-1α 1 ng/mL) was 0.316 µM. The “concentration at which apparent permeability of LY was reduced” value ([18]; cytokine-treated colon monolayers) was “above 3 μM”.

B1: IFN-γ: proinflammatory cytokine, single treatment (protein, UniProt P01579 24-161, looked up)
Interferon gamma: QDPYVKEAENLKKYFNAGHSDVADNGTLFLGILKNWKEESDRKIMQSQIVSFYFKLFKNFKDDQSIQKSVETIKEDMNVKFFNSNKKKRDDFEKLTNYSVTDLNVQRKAIHELIQVMAELSPAAKTGKRKRSQMLFRG
With B1 the “EC50 calculated from EC50 dose response curves (TEER)” value [19] was 3.71.
